These are literature values, as cited in patent US20210319872A1, “DRUG AND DEVICE COMBINATION PRODUCTS WITH IMPROVED SAFETY AND EFFICACY PROFILES” (priority 2016, published 2021).

Structures are written as SMILES. Like-named read-outs stand apart in the source and are kept apart here.

For `CCCCCCCCc1ccc(CCC(N)(CO)CO)cc1` [Gilenya], the Increased liver enzymes result (5 times ULN or greater (ALT, AST)) is reported as “times ULN or greater (ALT, AST), 4.5%)”. In addition, the Increased liver enzymes (All elevations (ALT/GGT/AST)) is listed as 15%. Also, under “All infections”, the Infectious disease was 72%. Besides, where the note is “in vivo”, the Abdominal pain is 11%; the Atrioventricular block entry is on record as “Cardiovascular: Atrioventricular block (up to 4.7%),”; the Backache entry is listed as “Musculoskeletal: Backache (10%), Pain, In Extremity (10%)”; the Bradyarrhythmia result is given as “Bradyarrhythmia (3%.)”. In addition, under “in vivo”, the Cough is 12%; the Diarrhea was 13%; the Headache result was “Neurologic: Headache (25%)”; the Herpesvirus infection entry is listed as “Immunologic: Cryptococcosis, Herpesvirus infection (9%),”. Also, for the setting “in vivo”, the Influenza entry is recorded as “Immunologic: Influenza (11%)”; the “Lymphocytopenia (Severe)” value is listed as “Hematologic: Lymphocytopenia (Severe) (7%)”; the “Pain, In Extremity” value is reported as “Musculoskeletal: Backache (10%), Pain, In Extremity (10%)”; the Sinusitis was 11%. Also, where the note is “listed without frequency”, the “Serious side effect, Dermatologic” value was “Dermatologic: Malignant melanoma”; the “Serious side effect, Immunologic” value was “Immunologic: Cryptococcosis, Herpesvirus infection (9%),”; the “Serious side effect, Neurologic” value is “Cryptococcal meningitis”. The Infectious disease (serious infections) is given as 2.3%. Also, the Increased liver enzymes (up to 3 times ULN (ALT, AST)) was 14%.
In the case of `CCCN(CCC)CCc1cccc2c1CC(=O)N2` [Ropinirole (Requip)], for the setting “in vivo”, the Abdominal pain result is “Gastrointestinal: Abdominal pain (6% to 7%), Constipation (4% to”; the Constipation result was “Gastrointestinal: Abdominal pain (6% to 7%), Constipation (4% to”; the Dyskinesia result was “syndrome, 11%), Dyskinesia (13% to 34%), Headache (6%),”; the Fatigue entry was “Other: Fatigue (8% to 11%)”. Besides, under “in vivo”, the Hallucinations result is on record as “Psychiatric: Hallucinations (5% to 10%)”; the Headache entry is listed as “syndrome, 11%), Dyskinesia (13% to 34%), Headache (6%),”; the Hypotension result is “Cardiovascular: Hypotension (2% to 25%), Orthostatic hypotension”; the Nausea was 5%), Nausea (11% to 60%), Vomiting (7% to 12%). For the same compound, under “in vivo”, the Orthostatic hypotension entry is reported as “(Up to 23%)”; the Syncope entry is recorded as “disease, 1% to 12%; restless leg syndrome, 1%)”; the Vomiting was 5%), Nausea (11% to 60%), Vomiting (7% to 12%).
As to `C=CCC1(C(C)CCC)C(=O)NC(=O)NC1=O` (stereo not shown) [Seconal (secobarbital)], for the setting “in vivo”, the “Complex mannerisms - behavior” value is “Psychiatric: Complex mannerisms - behavior (Less than 1%.)”; the Liver damage result is listed as “Hepatic: Liver damage (less than 1%)”; the “Megaloblastic anemia, With prolonged use” value is listed as less than 1%); the “Serious side effect, Other” value is “Other: Drug dependence, Withdrawal sign or symptom”. Further, the Somnolence entry (in vivo) is on record as “Neurologic: Somnolence (1% to 3%)”.
Consider `CC(=O)O[C@H]1CC[C@@]2(C)C(=CC[C@@H]3[C@@H]2CC[C@]2(C)C(c4cccnc4)=CC[C@@H]32)C1` [Zytiga], for which, for the setting “in vivo”, the ALT/SGPT level raised entry was “Hepatic: ALT/SGPT level raised (11.1% to 41.9%), AST/SGOT”; the AST/SGOT level raised entry is “level raised (30.6% to 37.3%), Serum bilirubin raised (6.6%)”; the Adrenal insufficiency entry is listed as “Endocrine metabolic: Adrenal insufficiency (0.5%), Hypokalemia”; the Alkaline phosphatase raised result was “Hepatic: Alkaline phosphatase raised (Greater than 20%)”. Moreover, under “in vivo”, the Anemia result was “Hematologic: Anemia (Greater than 20%), Lymphocytopenia, All”; the Cardiac dysrhythmia result is recorded as “Cardiovascular: Cardiac dysrhythmia (7.2%), Cardiorespiratory”; the Contusion entry is “Dermatologic: Contusion (13.3%), Flushing (19% to 22.3%)”; the Cough entry is “Respiratory: Cough (10.6% to 17.3%), Dyspnea (11.8%)”. Moreover, where the note is “in vivo”, the Dyspnea entry is listed as “Respiratory: Cough (10.6% to 17.3%), Dyspnea (11.8%)”; the Fatigue entry is recorded as “Other: Fatigue (39.1%)”; the Flushing result was “Dermatologic: Contusion (13.3%), Flushing (19% to 22.3%)”; the Hypercholesterolemia result is “Endocrine metabolic: Hypercholesterolemia (Greater than 20%),”. For the same compound, where the note is “in vivo”, the Hyperglycemia result is “Hyperglycemia (56.6%), Hypertriglyceridemia (62.5%),”; the Hypertriglyceridemia entry is on record as “Hyperglycemia (56.6%), Hypertriglyceridemia (62.5%),”; the Hypokalemia result was “(17.2% to 28.3%)”; the Hypophosphatemia result is “Hypophosphatemia (23.8%)”. For the same compound, under “in vivo”, the Joint swelling result is “Musculoskeletal: Joint swelling (29.5% to 30.3%)”; the “Lymphocytopenia, All grades” value was “grades (38.2%)”; the “Lymphocytopenia, Grade 3 or 4” value is on record as “Hematologic: Lymphocytopenia, Grade 3 or 4 (8.7%)”; the Serum bilirubin raised result is “level raised (30.6% to 37.3%), Serum bilirubin raised (6.6%)”. For the same compound, the “Urinary tract infectious disease” value (in vivo) is “Renal: Urinary tract infectious disease (11.5%)”.
With `CCCCC(=O)N(Cc1ccc(-c2ccccc2-c2nnn[nH]2)cc1)[C@H](C(=O)O)C(C)C` [Valsartan (Diovan)], for the setting “in vivo”, the “Common side effects, listed without incidence” value is reported as “Respiratory: Cough”; the Dizziness result was “Neurologic: Dizziness (2% to 17%), Headache (greater than 1%)”; the Headache result is reported as “Neurologic: Dizziness (2% to 17%), Headache (greater than 1%)”; the Hypotension result is recorded as “Cardiovascular: Hypotension (5.5% to 6.9%)”. The “Serum blood urea nitrogen raised” value (in vivo) is “Renal: Serum blood urea nitrogen raised (heart failure, 16.6%),”.
Take `Nc1nnc(-c2cccc(Cl)c2Cl)c(N)n1` [Lamictal XR]: under “extended-release”, the Anxiety is listed as 3%, the Asthenia is 6%, the Blurred vision is 3% and the Coordination problem is recorded as 3%. In addition, under “extended-release”, the Depression is on record as 3%; the Diarrhea is on record as 5%; the Diplopia result is reported as “extended-release, 5%)”; the Dizziness was 14%. Further, for the setting “extended-release”, the Nausea is listed as 7%; the Somnolence is 5%; the Tremor is listed as 6%; the Vertigo result is “release, 3%)”. Besides, the Vomiting (extended-release) is listed as 6%. Further, under “immediate release”, the Anemia entry is “Hematologic: Anemia (immediate release, less than 0.1%),”; the Eosinophilia is listed as less than 0.1%; the Thrombocytopenia is on record as < 1%), Thrombocytopenia (immediate release, less than 0.1%). Under “immediate-release”, the Anxiety result was “Psychiatric: Anxiety (immediate-release, 4%; extended-release,”; the Depression was 4%; the Headache entry was “Headache (immediate-release, 29%), Insomnia (immediate-release,”; the Pain entry is listed as “Other: Pain (immediate-release, 5%)”. Also, the Vertigo (immediate-release) is recorded as 2%. Moreover, under “immediate-release, children”, the Blurred vision was 4% and the Diplopia is listed as 5%. Under “in vivo”, the Angioedema is less than 0.1% and the Erythema multiforme result is given as “Dermatologic: Erythema multiforme (less than 0.1%), Rash,”. Besides, where the note is “listed without frequency”, the “Serious side effect, Hematologic” value is “Disseminated intravascular coagulation, Eosinophilia (immediate”; the “Serious side effect, Hepatic” value is “Hepatic: Liver failure”; the “Serious side effect, Immunologic” value is “Immunologic: Drug hypersensitivity syndrome”; the “Serious side effect, Neurologic” value is reported as “Neurologic: Aseptic meningitis”.
